Data taken from ChEMBL document CHEMBL2331547, “o-Benzenedisulfonimido-sulfonamides are potent inhibitors of the tumor-associated carbonic anhydrase isoforms CA IX and CA XII” (Bioorg Med Chem, 2013).

biological target: Carbonic anhydrase 9 (Homo sapiens, UniProt Q16790); assay: Inhibition of human recombinant carbonic anhydrase-9-mediated CO2 hydration preincubated for 10 mins by stopped-flow assay

| Ki | SMILES |
| --- | --- |
| 82.5 nM | NS(=O)(=O)c1ccc(N2S(=O)(=O)c3ccccc3S2(=O)=O)cc1 |
| 66.9 nM | NS(=O)(=O)c1ccccc1N1S(=O)(=O)c2ccccc2S1(=O)=O |
| 32.2 nM | NS(=O)(=O)c1cccc(N2S(=O)(=O)c3ccccc3S2(=O)=O)c1 |
| 49.8 nM | NS(=O)(=O)c1ccc(CN2S(=O)(=O)c3ccccc3S2(=O)=O)cc1 |
| 17.1 nM | NS(=O)(=O)c1ccc(N2S(=O)(=O)c3ccccc3S2(=O)=O)c(Cl)c1 |

| SMILES | Ki |
| --- | --- |
| NS(=O)(=O)c1ccc(CCN2S(=O)(=O)c3ccccc3S2(=O)=O)cc1 | 86 nM |
